From PubChem BioAssay (NCI)
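Test compounds were applied to cells in 96-well plates for 48 hours at 5 doses. The concentration for full growth arrest is given as TGI.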

How the values were obtained:
Assay in all cases: NCI-60 cell line screen, 48 h
786-0 renal = test system: 786-0 renal
ACHN renal = test system: ACHN renal
HOP-62 NSCLC = test system: HOP-62 NSCLC
UACC-257 melanoma = test system: UACC-257 melanoma
IGROV1 ovarian = test system: IGROV1 ovarian
MDA-MB-435 = test system: MDA-MB-435
CAKI-1 renal = test system: CAKI-1 renal
HOP-92 NSCLC = test system: HOP-92 NSCLC
MDA-MB-231 breast = test system: MDA-MB-231 breast
CCRF-CEM leukemia = test system: CCRF-CEM leukemia
OVCAR-5 ovarian = test system: OVCAR-5 ovarian
SW-620 colon = test system: SW-620 colon
A549 NSCLC = test system: A549 NSCLC
OVCAR-4 ovarian = test system: OVCAR-4 ovarian
A498 renal = test system: A498 renal
NCI-H23 lung = test system: NCI-H23 lung
SR leukemia = test system: SR leukemia
MOLT-4 leukemia = test system: MOLT-4 leukemia
SK-MEL-2 melanoma = test system: SK-MEL-2 melanoma
SK-MEL-28 melanoma = test system: SK-MEL-28 melanoma
M14 melanoma = test system: M14 melanoma
T-47D breast = test system: T-47D breast
TK-10 renal = test system: TK-10 renal
UO-31 renal = test system: UO-31 renal
SF-539 CNS = test system: SF-539 CNS
MCF7 breast = test system: MCF7 breast
SF-268 CNS = test system: SF-268 CNS
HT29 colon = test system: HT29 colon
NCI-H460 lung = test system: NCI-H460 lung
MALME-3M melanoma = test system: MALME-3M melanoma
U251 CNS = test system: U251 CNS
EKVX NSCLC = test system: EKVX NSCLC
HCT-116 colon = test system: HCT-116 colon
K-562 leukemia = test system: K-562 leukemia
BT-549 breast = test system: BT-549 breast
UACC-62 melanoma = test system: UACC-62 melanoma
SN12C renal = test system: SN12C renal
NCI-H226 lung = test system: NCI-H226 lung
KM12 colon = test system: KM12 colon
SK-MEL-5 melanoma = test system: SK-MEL-5 melanoma
COLO 205 colon = test system: COLO 205 colon
HCC-2998 colon = test system: HCC-2998 colon
RXF 393 renal = test system: RXF 393 renal
SF-295 CNS = test system: SF-295 CNS
SNB-19 CNS = test system: SNB-19 CNS
OVCAR-3 ovarian = test system: OVCAR-3 ovarian
HL-60(TB) leukemia = test system: HL-60(TB) leukemia
HCT-15 colon = test system: HCT-15 colon
LOX IMVI melanoma = test system: LOX IMVI melanoma
HS 578T breast = test system: HS 578T breast
NCI-H522 lung = test system: NCI-H522 lung
SK-OV-3 ovarian = test system: SK-OV-3 ovarian
DU-145 prostate = test system: DU-145 prostate
MDA-N = test system: MDA-N
RPMI-8226 leukemia = test system: RPMI-8226 leukemia
NCI/ADR-RES ovarian = test system: NCI/ADR-RES ovarian
SNB-75 CNS = test system: SNB-75 CNS
OVCAR-8 ovarian = test system: OVCAR-8 ovarian
PC-3 prostate = test system: PC-3 prostate

`Fc1ccc(N=NN2CCCC2)cc1` was tested, and the TGI (786-0 renal) was greater than 100 µM, the TGI (ACHN renal) was greater than 100 µM and the TGI (HOP-62 NSCLC) was greater than 100 µM. The TGI (UACC-257 melanoma) was greater than 100 µM, the TGI (IGROV1 ovarian) was greater than 100 µM and the TGI (MDA-MB-435) was greater than 100 µM. For the same compound, the TGI (CAKI-1 renal) was greater than 100 µM, the TGI (HOP-92 NSCLC) was greater than 100 µM and the TGI (MDA-MB-231 breast) was greater than 100 µM. The TGI (CCRF-CEM leukemia) was greater than 100 µM, the TGI (OVCAR-5 ovarian) was greater than 100 µM and the TGI (SW-620 colon) was greater than 100 µM. For the same compound, the TGI (A549 NSCLC) was greater than 100 µM, the TGI (OVCAR-4 ovarian) was greater than 100 µM and the TGI (A498 renal) was greater than 100 µM. It also gave a TGI (NCI-H23 lung) greater than 100 µM, a TGI (SR leukemia) greater than 100 µM and a TGI (MOLT-4 leukemia) greater than 100 µM. It also gave a TGI (SK-MEL-2 melanoma) greater than 100 µM, a TGI (SK-MEL-28 melanoma) greater than 100 µM and a TGI (M14 melanoma) greater than 100 µM. The TGI (T-47D breast) was greater than 100 µM, the TGI (TK-10 renal) was greater than 100 µM and the TGI (UO-31 renal) was greater than 100 µM. It also gave a TGI (SF-539 CNS) greater than 100 µM, a TGI (MCF7 breast) greater than 100 µM and a TGI (SF-268 CNS) greater than 100 µM. It also gave a TGI (HT29 colon) greater than 100 µM, a TGI (NCI-H460 lung) greater than 100 µM and a TGI (MALME-3M melanoma) greater than 100 µM. For the same compound, the TGI (U251 CNS) was greater than 100 µM, the TGI (EKVX NSCLC) was greater than 100 µM and the TGI (HCT-116 colon) was greater than 100 µM. It also gave a TGI (K-562 leukemia) greater than 100 µM, a TGI (BT-549 breast) greater than 100 µM and a TGI (UACC-62 melanoma) greater than 100 µM. For the same compound, the TGI (SN12C renal) was greater than 100 µM, the TGI (NCI-H226 lung) was greater than 100 µM and the TGI (KM12 colon) was greater than 100 µM. The TGI (SK-MEL-5 melanoma) was greater than 100 µM, the TGI (COLO 205 colon) was greater than 100 µM and the TGI (HCC-2998 colon) was greater than 100 µM. For the same compound, the TGI (RXF 393 renal) was greater than 100 µM, the TGI (SF-295 CNS) was greater than 100 µM and the TGI (SNB-19 CNS) was greater than 100 µM. For the same compound, the TGI (OVCAR-3 ovarian) was greater than 100 µM, the TGI (HL-60(TB) leukemia) was greater than 100 µM and the TGI (HCT-15 colon) was greater than 100 µM. The TGI (LOX IMVI melanoma) was greater than 100 µM, the TGI (HS 578T breast) was greater than 100 µM and the TGI (NCI-H522 lung) was greater than 100 µM. It also gave a TGI (SK-OV-3 ovarian) greater than 100 µM, a TGI (DU-145 prostate) greater than 100 µM and a TGI (MDA-N) greater than 100 µM. The TGI (RPMI-8226 leukemia) was greater than 100 µM.

Work on `COc1ccc2c(c1)N=C1CSC(c3ccccc3Cl)N1C2` (centres undefined) yielded a TGI (786-0 renal) of 31.6 µM, a TGI (ACHN renal) of 41.8 µM and a TGI (HOP-62 NSCLC) of 34.5 µM. The TGI (NCI/ADR-RES ovarian) was 72.3 µM, the TGI (UACC-257 melanoma) was 32.7 µM and the TGI (MDA-MB-435) was 27.7 µM. It also gave a TGI (CAKI-1 renal) of 24.6 µM, a TGI (HOP-92 NSCLC) of 82.5 µM and a TGI (MDA-MB-231 breast) greater than 100 µM. The TGI (OVCAR-5 ovarian) was 28.2 µM, the TGI (SW-620 colon) was 39.5 µM and the TGI (A549 NSCLC) was 31.9 µM. For the same compound, the TGI (OVCAR-4 ovarian) was 35.6 µM, the TGI (NCI-H23 lung) was 49.9 µM and the TGI (SR leukemia) was 16 µM. The TGI (MOLT-4 leukemia) was 15.7 µM, the TGI (SK-MEL-2 melanoma) was 30.3 µM and the TGI (SK-MEL-28 melanoma) was 40.8 µM. For the same compound, the TGI (M14 melanoma) was 28.3 µM, the TGI (T-47D breast) was greater than 100 µM and the TGI (TK-10 renal) was 41.8 µM. For the same compound, the TGI (UO-31 renal) was 1.8 µM, the TGI (SF-539 CNS) was 22.6 µM and the TGI (MCF7 breast) was 53.5 µM. The TGI (SNB-75 CNS) was 40.6 µM, the TGI (SF-268 CNS) was 76.2 µM and the TGI (HT29 colon) was 19.6 µM. The TGI (NCI-H460 lung) was 15.4 µM, the TGI (MALME-3M melanoma) was 73.9 µM and the TGI (U251 CNS) was 66.8 µM. For the same compound, the TGI (EKVX NSCLC) was 22 µM, the TGI (HCT-116 colon) was 18.8 µM and the TGI (K-562 leukemia) was 75.7 µM. The TGI (BT-549 breast) was greater than 100 µM, the TGI (UACC-62 melanoma) was 20.3 µM and the TGI (SN12C renal) was 37.5 µM. For the same compound, the TGI (NCI-H226 lung) was 50.5 µM, the TGI (KM12 colon) was 18.4 µM and the TGI (OVCAR-8 ovarian) was 42.4 µM. For the same compound, the TGI (PC-3 prostate) was 58.5 µM, the TGI (SK-MEL-5 melanoma) was 31.4 µM and the TGI (COLO 205 colon) was 42.4 µM. The TGI (HCC-2998 colon) was 18.1 µM, the TGI (RXF 393 renal) was 25.4 µM and the TGI (SF-295 CNS) was 42.4 µM. For the same compound, the TGI (SNB-19 CNS) was greater than 100 µM, the TGI (HL-60(TB) leukemia) was 4.76 µM and the TGI (HCT-15 colon) was 87.8 µM. For the same compound, the TGI (LOX IMVI melanoma) was 23 µM, the TGI (HS 578T breast) was greater than 100 µM and the TGI (NCI-H522 lung) was 51.4 µM. For the same compound, the TGI (SK-OV-3 ovarian) was 47.5 µM, the TGI (MDA-N) was 26.8 µM and the TGI (RPMI-8226 leukemia) was 35.3 µM.
